This data set in a line: Metabolism by recombinant human NAD(P)H:quinone oxidoreductase (NQO1) was evaluated. The data set is classed as ADME.

SMILES strings stand for the structures.

For the compound `COC1=CC(=O)c2nc(-c3ccccc3)ccc2C1=O`, the NADH oxidation was 28.8 µM/min/mg.
As for `COC1=CC(=O)c2nc(-c3ccccn3)ccc2C1=O`, the NADH oxidation is 50.5 µM/min/mg.
Consider `O=C1C(N2CCCC2)=CC(=O)c2ncccc21`, for which the NADH oxidation was 26.2 µM/min/mg.
For the compound `COC1=CC(=O)c2nc(-c3ccc(C)cc3)ccc2C1=O`, the NADH oxidation came to 19.2 µM/min/mg.
Take `COC1=CC(=O)c2nc(-c3ccc4ccccc4c3)ccc2C1=O`: the NADH oxidation came out at 14 µM/min/mg.
Turning to `COC1=CC(=O)c2c(cc(C)n2C)C1=O`, the NADH oxidation stood at 5.31 µM/min/mg.
As to `COC1=CC(=O)c2ncccc2C1=O`, the NADH oxidation is 58.7 µM/min/mg.
For the compound `COC1=CC(=O)c2nc(-c3cccc4ccccc34)ccc2C1=O`, the NADH oxidation came to 25.1 µM/min/mg.
As for `COC1=CC(=O)c2nc(-c3ccc(-c4ccccc4)cc3)ccc2C1=O`, the NADH oxidation was determined as 4.75 µM/min/mg.
Turning to `COC1=C(N)C(=O)c2nc(-c3nc(C(=O)O)c(C)c(-c4ccc(OC)c(OC)c4O)c3N)ccc2C1=O` [STREPTONIGRIN], the NADH oxidation amounted to 47.4 µM/min/mg.
As for `COC1=CC(=O)c2nc(-c3cccs3)ccc2C1=O`, the NADH oxidation was found to be 32.1 µM/min/mg.
On to `COC1=CC(=O)c2nc(-c3cc4ccccc4o3)ccc2C1=O`, for which the NADH oxidation came out at 33.3 µM/min/mg.
`COC1=CC(=O)c2nc(-c3ccc(C)cn3)ccc2C1=O`: the NADH oxidation was found to be 45.7 µM/min/mg.
Next, `COC1=CC(=O)c2nc(Cl)ccc2C1=O`: 100 µM/min/mg.

The values are drawn from ChEMBL document CHEMBL1131818, “Novel quinolinequinone antitumor agents: structure-metabolism studies with NAD(P)H:quinone oxidoreductase (NQO1)” (Bioorg Med Chem Lett, 1999).
